Test results reported in patent US20250296971A1, “GASTRIC INHIBITORY PEPTIDE RECEPTOR LIGANDS” (priority 2021, published 2025).
Read-outs that look alike come from different tables or passages of the source. *1 amine or outer side, *2 acyl side, *3 side chain or, on linkers, in order; H or OH if unused. Where a SMILES comes first, the peptide text is derived from it. Bridges are numbered along the chain shown (N, C = ends). [ ]: non-standard residue; d: D form. The star is where a group is joined. DOTA(Lu) = O=C1CN2CCN3CCN(CC(=O)*)CCN(CC2)CC(=O)[O][Lu]([O]1)[O]C(=O)C3; X3 = O=C(O)CN1CCN(CC(=O)O)CCN(CC(=O)NCCCOCCOCCOCCCN*)CCN(CC(=O)O)CC1; NH(1-deoxy-D-glucityl) = OC[C@@H](O)[C@@H](O)[C@H](O)[C@@H](O)CN*; DOTA = O=C(O)CN1CCN(CC(=O)O)CCN(CC(=O)*)CCN(CC(=O)O)CC1; Pro(cis-4-NHAc) = CC(=O)N[C@@H]1CN[C@H](C(=O)O)C1; Trp(5-Cl) = N[C@@H](Cc1c[nH]c2ccc(Cl)cc12)C(=O)O; Pyridine(2,6-diCH2) = c1cc(C[*:1])nc(C[*:2])c1; X10 = O=C(CN(CC(=O)NC(CO)CO)CC(=O)*)NC(CO)CO; Pro(4R-NH2) = N[C@H]1CN[C@H](C(=O)O)C1; Glutaryl = O=C(CCCC(=O)[*:2])[*:1]; X7 = c1cc(CSCCN[*:2])cc(C[*:1])c1; Hyp = O=C(O)[C@@H]1C[C@@H](O)CN1; X1 = O=C(CN1CCC(N[*:1])CC1)[*:2]; Suc = O=C(CCC(=O)[*:2])[*:1]; NHCH(CH2OH)2 = OCC(CO)N*; Api = NC1(C(=O)O)CCNCC1; Thp = NC1(C(=O)O)CCOCC1; Aib = CC(C)(N)C(=O)O

Legend:
[1] = target: T1, GIPR (CHO-K1-hGIPR cells) (Homo sapiens, UniProt P48546); test: FACS binding assay
T1 construct: host or cells: CHO-K1
T1 sequence (P48546 22-466): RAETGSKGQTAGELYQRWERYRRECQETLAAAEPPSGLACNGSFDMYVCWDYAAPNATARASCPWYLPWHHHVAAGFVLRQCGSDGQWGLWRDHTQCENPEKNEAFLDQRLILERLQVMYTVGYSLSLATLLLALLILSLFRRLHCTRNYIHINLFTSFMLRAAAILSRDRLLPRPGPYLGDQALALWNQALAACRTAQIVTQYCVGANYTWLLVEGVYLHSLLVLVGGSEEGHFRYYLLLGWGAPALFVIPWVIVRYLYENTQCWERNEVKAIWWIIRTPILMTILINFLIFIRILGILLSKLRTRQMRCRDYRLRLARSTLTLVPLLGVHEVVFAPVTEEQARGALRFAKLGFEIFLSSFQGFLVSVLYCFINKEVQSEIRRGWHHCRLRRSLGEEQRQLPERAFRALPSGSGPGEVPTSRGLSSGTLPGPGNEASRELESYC
Procedure, shortened: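 Steps: detach CHO-K1-hGIPR cells (Accutase); wash in PBS/1% FCS; adjust to 500.000 cells per mL; wash ice-cold; incubate APC-streptavidin 1 μg/mL, 30 min on ice; wash twice; acquire on flow cytometer; fit MFI-concentration data with a four-parameter logistic model.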

[2] = target: T2, human GIP receptor (bioGIPR) (Homo sapiens, UniProt P48546); test: Surface plasmon resonance (SPR) based binding assay; settings: for t1/2 Category: SPR dissociation half-life
T2 construct: Biotinylate extracellular of the human GIP receptor (bioGIPR, Proteros biostructures GmbH, lot #02/2b); purchased Proteros biostructures GmbH lot #02/2b
T2 sequence (P48546 22-138 limits assumed): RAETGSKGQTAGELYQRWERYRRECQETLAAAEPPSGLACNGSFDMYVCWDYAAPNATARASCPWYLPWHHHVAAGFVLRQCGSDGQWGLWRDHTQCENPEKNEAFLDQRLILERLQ
Procedure: Surface plasmon resonance (SPR) studies were performed using a Biacore™ T200 SPR system. Briefly, polarized light is directed towards a gold-labeled sensor surface, and minimum intensity reflected light is detected. The angle of reflected light changes as molecules bind and dissociate.
Biotinylate extracellular of the human GIP receptor (bioGIPR, Proteros biostructures GmbH, lot #02/2b) was captured on a biotin capture chip (Biotin CAPture Kit, Series S, GE Healthcare, Cat #28-9202-34). bioGIPR was diluted in Running Buffer (HBST from Xantec Analytics; […], 0.05% Tween20, 0.1% DMSO) to a final concentration 100 nM and than flushed over the Fc-capture chip to immobilized ˜3500 RUs.
Stock solutions of test compounds were prepared by dissolving each compound in DMSO. DMSO stock solution were diluted 1:1000 in Running Buffer without DMSO. Further sequential dilutions were made with Running Buffer containing 0.1% DMSO. SPR binding analyses were performed in Single Cycle Kinetic (SCK) mode at 25° C. Flow cell without immobilized bioGIPR served as reference flowcell. After each SCK run, bioGIRP and the Biotin Capture Reagent was removed with Regeneration Solution (6 M Guanidium, 0.75 M NaOH).
In between every three SCK measurements, a blank run with Running Buffer instead of test compound was included to correct for baseline drifts (double blanking method).
For each test compound, SPR raw data in the form of resonance units (RU) were plotted as sensorgrams using the Biacore™ T200 control software. The signal from the blank sensorgram was subtracted from that of the test compound sensorgram (blank corrected). The blank corrected sensorgram was corrected for baseline drift by subtracting the sensorgram of a SCK run without the test compound (running buffer only). The association rate (kon), dissociation rate (koff), dissociation constant (KD), and t1/2 were calculated from blank corrected SPR data using the 1:1 Langmuir binding model from the Biacore™ T200 evaluation software. Raw data and fit results were imported as text files in IDBS. The pKD value (negative decadic logarithm of dissociation constant) was calculated in the IDBS excel template.

[3] = Single Cycle Kinetic mode, 25° C.
[4] = SPR, Single Cycle Kinetic mode, 25° C., 1:1 Langmuir binding model, read-out: pKD Category (converted)
[5] = competition with 20 nM GIP-057, 4° C., 1 hour, read-out: pIC50 Category (converted)

| Structure (SMILES) | IC50 ([1]; competition with 20 nM GIP-057, 4° C. for 1 hour, read-out: pIC50 Category (converted)) [nM] | t1/2 Category [2, 3] | Kd [2, 4] [nM] | IC50 [1, 5] [nM] | IC50 ([1]; pIC50 Category, competition with 20 nM GIP-057, 4° C., 1 hour) [nM] | Kd [2] [nM] |
| --- | --- | --- | --- | --- | --- | --- |
| CC[C@H](C)[C@@H]1NC(=O)[C@H](CC(C)C)NC(=O)C2(CCN(C(=O)CN3CCN(CC(=O)O)CCN(CC(=O)O)CCN(CC(=O)O)CC3)CC2)NC(=O)[C@@H](NC(=O)[C@@H](CC(C)C)NC(=O)[C@H](CCC(=O)O)NC(=O)[C@@H]2C[C@@H](N)CN2C(=O)[C@H](Cc2c[nH]c3ccc(Cl)cc23)NC(=O)[C@H](Cc2c[nH]c3ccccc23)NC(=O)[C@H](CC(=O)O)NC(=O)CN(CC(=O)NC(CO)CO)CC(=O)NC(CO)CO)CSCc2cccc(n2)CSC[C@@H](C(=O)NC2CCN(CC(=O)N[C@H](CCC(=O)NC(CO)CO)C(=O)NC(CO)CO)CC2)NC1=O [GIP-374, NTASEROL-Asp-Trp-5Clw-Tap-Glu-leu-[Cys(2Lut)-Apc(DOTA)-Leu-Ile-Cys]-APAc-GLUSEROL] (X10-DW[Trp(5-Cl)][Pro(4R-NH2)]E[dL]C[Api](DOTA)LIC[X1][dE](NHCH(CH2OH)2)-{NHCH(CH2OH)2}; linker 7-11 via Pyridine(2,6-diCH2)) | < 10 | A (t1/2 values>15 min) | < 1 |  |  |  |
| CC[C@H](C)[C@@H]1NC(=O)[C@H](CC(C)C)NC(=O)C(C)(C)NC(=O)[C@@H](NC(=O)[C@@H](CC(C)C)NC(=O)[C@H](CCC(=O)O)NC(=O)[C@@H]2C[C@H](NC(C)=O)CN2C(=O)[C@H](Cc2c[nH]c3ccc(Cl)cc23)NC(=O)[C@H](Cc2c[nH]c3ccccc23)NC(=O)[C@H](CC(=O)O)NC(=O)CCC(=O)NCCCOCCOCCOCCCNC(=O)CN2CCN(CC(=O)O)CCN(CC(=O)O)CCN(CC(=O)O)CC2)CSCc2cccc(c2)CSCCNC1=O [GIP-111, DOTA-Ttds-Asp-Trp-5Clw-4Ap(Ac)-Glu-leu-[Cys(3MeBn)-Aib-Leu-Ile-AET]] ({X3-Suc}-DW[Trp(5-Cl)][Pro(cis-4-NHAc)]E[dL]C[Aib]LI; linker 7-C via X7) |  | A (t1/2 values>15 min) | 1 to 7.94 | < 10 |  |  |
| CC[C@H](C)[C@@H]1NC(=O)[C@H](CC(C)C)NC(=O)C2(CCOCC2)NC(=O)[C@@H](NC(=O)[C@@H](CC(C)C)NC(=O)[C@H](CCC(=O)O)NC(=O)[C@@H]2C[C@@H](O)CN2C(=O)[C@H](Cc2c[nH]c3ccc(Cl)cc23)NC(=O)[C@H](Cc2c[nH]c3ccccc23)NC(=O)[C@H](CO)NC(C)=O)CSCc2cccc(n2)CSC[C@@H](C(N)=O)NC1=O [GIP-188, Ac-Ser-Trp-5Clw-Hyp-Glu-leu-[Cys(2Lut)-Thp-Leu-Ile-Cys]-NH2] (Ac-SW[Trp(5-Cl)][Hyp]E[dL]C[Thp]LIC-NH2; linker 7-11 via Pyridine(2,6-diCH2)) |  | A (t1/2 values>15 min) | < 1 | < 10 |  |  |
| CC[C@H](C)[C@@H]1NC(=O)[C@H](CC(C)C)NC(=O)C2(CCN(C(=O)CN3CCN4CCN5CCN(CC3)CC(=O)[O][Lu]([O]C(=O)C5)[O]C(=O)C4)CC2)NC(=O)[C@@H](NC(=O)[C@@H](CC(C)C)NC(=O)[C@H](CCC(=O)O)NC(=O)[C@@H]2C[C@@H](N)CN2C(=O)[C@H](Cc2c[nH]c3ccc(Cl)cc23)NC(=O)[C@H](Cc2c[nH]c3ccccc23)NC(=O)[C@H](CC(=O)O)NC(=O)CCCC(=O)NC[C@H](O)[C@@H](O)[C@H](O)[C@H](O)CO)CSCc2cccc(n2)CSC[C@@H](C(=O)NC2CCN(CC(=O)N[C@H](CCC(=O)NC[C@H](O)[C@@H](O)[C@H](O)[C@H](O)CO)C(N)=O)CC2)NC1=O [GIP-066, Lutetium-Complex of AGLU-Glutar-Asp-Trp-5Clw-Hyp-Glu-leu-[Cys(2Lut)-Apc(DOTA)-Leu-Ile-Cys]-APAc-glu(AGLU)-NH2] ({NH(1-deoxy-D-glucityl)-Glutaryl}-DW[Trp(5-Cl)][Pro(4R-NH2)]E[dL]C[Api](DOTA(Lu))LIC[X1][dE](NH(1-deoxy-D-glucityl))-NH2; linker 7-11 via Pyridine(2,6-diCH2)) |  | A (t1/2 values>15 min) |  |  | < 10 | < 1 |
